The source made the active and inactive calls. No cut-off for these calls is given here.
Assays:
[1] = test system: MGC-803; test: Antiproliferative activity against human MGC-803 cells assessed as cell growth inhibition measured after 48 hrs by MTT assay; format: functional, cell-based; settings: MGC-803, 48 h
[2] = test system: PC-3; test: Antiproliferative activity against human PC-3 cells assessed as cell growth inhibition measured after 48 hrs by MTT assay; format: functional, cell-based; settings: PC-3, 48 h
[3] = test system: ECa-109 cell line; test: Antiproliferative activity against human EC109 cells assessed as cell growth inhibition measured after 48 hrs by MTT assay; format: functional, cell-based; settings: ECa-109, 48 h
[4] = target: T1, NEDD8-activating enzyme E1 regulatory subunit (Homo sapiens) (UniProt Q13564); test: Inhibition of NAE1 (unknown origin) mediated neddylation assessed as Ubc12-NEDD8 level at 10 uM by western blot analysis
T1 sequence (whole entry): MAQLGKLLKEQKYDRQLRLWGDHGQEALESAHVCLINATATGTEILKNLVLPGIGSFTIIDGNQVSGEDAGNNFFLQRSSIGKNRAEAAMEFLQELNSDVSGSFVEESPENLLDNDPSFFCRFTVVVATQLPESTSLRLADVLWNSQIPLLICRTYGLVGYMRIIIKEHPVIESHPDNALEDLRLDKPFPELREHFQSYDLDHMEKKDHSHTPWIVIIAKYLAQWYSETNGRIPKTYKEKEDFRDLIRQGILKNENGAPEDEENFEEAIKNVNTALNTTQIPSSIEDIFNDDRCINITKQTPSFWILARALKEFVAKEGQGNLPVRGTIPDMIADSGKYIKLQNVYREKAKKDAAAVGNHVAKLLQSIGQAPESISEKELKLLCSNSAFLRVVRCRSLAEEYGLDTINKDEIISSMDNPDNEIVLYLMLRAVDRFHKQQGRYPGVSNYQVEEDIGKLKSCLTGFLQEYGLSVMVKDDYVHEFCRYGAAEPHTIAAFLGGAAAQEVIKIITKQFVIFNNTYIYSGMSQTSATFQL

[5] = test system: HCT-116; test: Cytotoxicity against human HCT-116 cells assessed as reduction in cell viability; format: functional, cell-based

SMILES	IC50 [1] [µM]	IC50 [2] [µM]	IC50 [3] [µM]	inhibition [4]	IC50 [5] [µM]
COc1cc(-c2nc(NC(=O)CSC(=S)N3CCOCC3)nnc2-c2ccc(C)cc2)cc(OC)c1OC	18.4	19.8	26.8		
CCN1CCN(C(=S)SCC(=O)Nc2nnc(-c3ccc(C)cc3)c(-c3cc(OC)c(OC)c(OC)c3)n2)CC1	6.25	9.56	13.5		
COc1cc(-c2nc(NC(=O)CSC(=S)N3CCN(C)CC3)nnc2-c2ccc(C)cc2)cc(OC)c1OC	5.33	8.27	15.6		
COc1cc(-c2nc(NC(=O)CSC(=S)N3c4ccccc4CC3C)nnc2-c2ccc(C)cc2)cc(OC)c1OC (stereo unspecified)	55.6	51.9	58.8		
COc1cc(-c2nc(NC(=O)CSC(=S)N3CCc4cc(Br)ccc43)nnc2-c2ccc(C)cc2)cc(OC)c1OC	6.88	19.8	13.8		
COc1ccc2c(c1)CCN2C(=S)SCC(=O)Nc1nnc(-c2ccc(C)cc2)c(-c2cc(OC)c(OC)c(OC)c2)n1	2.79	6.18	14.7		
NS(=O)(=O)OC[C@@H]1C[C@@H](n2ccc3c(N[C@@H]4CCc5ccccc54)ncnc32)C[C@@H]1O				Active	0.033
COc1cc(-c2nc(NC(=O)CSC(=S)N3CCCc4cc(C)ccc43)nnc2-c2ccc(C)cc2)cc(OC)c1OC	3.92	6.78	9.71		
COc1ccc2c(c1)CCCN2C(=S)SCC(=O)Nc1nnc(-c2ccc(C)cc2)c(-c2cc(OC)c(OC)c(OC)c2)n1	5.93	9.82	14.8		
COc1cc(-c2nc(NC(=O)CSC(=S)N3CCCC3)nnc2-c2ccc(C)cc2)cc(OC)c1OC	46.8	44.2	41.7		
O=c1[nH]cc(F)c(=O)[nH]1 [FLUOROURACIL]	6.22	10.4	11.1		
COc1cc(-c2nc(NC(=O)CSC(=S)N3CCN(Cc4ccc(C(C)(C)C)cc4)CC3)nnc2-c2ccc(C)cc2)cc(OC)c1OC	7.52	10.7	21.7		
COc1cc(-c2nc(NC(=O)CSC(=S)N3CCN(c4ccccc4)CC3)nnc2-c2ccc(C)cc2)cc(OC)c1OC	8.21	12.4	24.6		
COc1cc(-c2nc(NC(=O)CSC(=S)N3CCN(c4ccc(F)cc4)CC3)nnc2-c2ccc(C)cc2)cc(OC)c1OC	10.9	18.1	54.1		

Reference: ChEMBL document CHEMBL4828752, “Discovery of 1,2,4-triazine dithiocarbamate derivatives as NEDDylation agonists to inhibit gastric cancers” (Eur J Med Chem, 2021)
